Assay results published in patent US11426473B2, “Nitrogen-containing compound or salt thereof, or metal complex thereof” (FUJIFILM Corporation, priority 2013, dated 2022).
Counter-ions that a name gives are not always drawn. Like-named read-outs stand apart in the source and are kept apart here.

Experiments:
[1] = target: T1, Integrin αvβ5 (Homo sapiens, UniProt P06756+P18084); assay: Integrin αvβ5 binding affinity test
T1 construct: purchased Chemicon International, Inc
Description: (§1) […] αvβ5 (Chemicon International, Inc.) was immobilized on each well of a 96-well plate (Corning Inc.). Each well was blocked with a 1% Block Ace (DS Pharma Biomedical Co., Ltd) solution and then washed with PBST (10 mM Na2HPO4 pH 7.5, 150 mM NaCl, and 0.01% Tween 20). Evaluation compound solutions having a 2-fold concentration (10 concentrations of 3.16-fold dilutions from 0.3 μmol/L, buffer (20 mM Tris-HCl pH 7.5, 150 mM NaCl, 1 mM CaCl2, 1 mM MgCl2, and 1 mM MnCl2)) and a 4 μg/mL biotinylated vitronectin solution (vitronectin (Upstate Biotechnology Inc.) was labeled with EZ-Link Sulfo-NHS-Biotinylation Kit (Pierce/Thermo Fisher Scientific Inc.) and then concentration-adjusted) were each added at 50 μL/well, and the plate was shaken at room temperature for 2 hours. After washing with PBST, a 0.2 μg/mL avidin peroxidase (Pierce/Thermo Fisher Scientific Inc.) solution was added thereto, and the plate was shaken at room temperature for 1 hour. After washing with PBST, color was developed by an o-phenylenediamine (Sigma-Aldrich Inc.) solution (the reaction was terminated by the addition of 4 mol/L sulfuric acid), and the absorbance was measured (490 nm, Reference: 595 nm). The IC50 value was calculated using XLfit 3.0 (ID Business Solutions Ltd.). RGDfV (Bachem AG) was measured in duplicate as a QC sample for each plate.

[2] = target: T2, Integrin αvβ3 (Homo sapiens, UniProt P05106+P06756); assay: Integrin αvβ3 binding affinity test
T2 construct: purchased Chemicon International, Inc
Description: as §1, with “αvβ3” for “αvβ5”, “T-PBS (PBS containing 0.05%” for “PBST (10 mM Na2HPO4 pH 7.5, 150 mM NaCl, and 0.01%”, “T-PBS,” for “PBST,”

[3] = inhibition of biotinylated vitronectin binding to immobilized αvβ5, read-out: IC50 value αvβ5
[4] = inhibition of biotinylated vitronectin binding to immobilized αvβ3, read-out: IC50 value αv β3

T2 sequence (P06756 31-889 limits assumed): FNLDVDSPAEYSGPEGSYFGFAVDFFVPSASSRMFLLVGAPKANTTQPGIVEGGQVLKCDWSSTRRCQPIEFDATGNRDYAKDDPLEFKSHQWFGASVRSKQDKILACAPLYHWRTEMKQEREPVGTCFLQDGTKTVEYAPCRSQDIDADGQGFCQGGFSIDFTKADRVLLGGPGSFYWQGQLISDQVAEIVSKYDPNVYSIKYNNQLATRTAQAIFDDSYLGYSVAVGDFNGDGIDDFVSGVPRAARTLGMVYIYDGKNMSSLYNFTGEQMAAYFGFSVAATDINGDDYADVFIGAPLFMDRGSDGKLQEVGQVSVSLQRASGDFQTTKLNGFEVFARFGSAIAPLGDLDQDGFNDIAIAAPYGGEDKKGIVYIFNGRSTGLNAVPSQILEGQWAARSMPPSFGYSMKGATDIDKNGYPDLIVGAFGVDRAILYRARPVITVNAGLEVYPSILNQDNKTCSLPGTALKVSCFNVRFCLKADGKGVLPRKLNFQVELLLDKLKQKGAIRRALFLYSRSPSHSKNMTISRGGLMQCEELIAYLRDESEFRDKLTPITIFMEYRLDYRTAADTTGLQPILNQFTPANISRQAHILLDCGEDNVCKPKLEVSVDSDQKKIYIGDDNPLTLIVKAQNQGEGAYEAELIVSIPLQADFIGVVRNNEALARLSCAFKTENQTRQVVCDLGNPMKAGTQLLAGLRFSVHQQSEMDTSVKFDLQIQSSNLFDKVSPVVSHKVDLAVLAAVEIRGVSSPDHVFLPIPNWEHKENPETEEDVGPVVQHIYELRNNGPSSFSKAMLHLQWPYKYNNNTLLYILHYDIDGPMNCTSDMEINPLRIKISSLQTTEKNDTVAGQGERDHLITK
T2 sequence (P06756 891-1048 partner limits assumed): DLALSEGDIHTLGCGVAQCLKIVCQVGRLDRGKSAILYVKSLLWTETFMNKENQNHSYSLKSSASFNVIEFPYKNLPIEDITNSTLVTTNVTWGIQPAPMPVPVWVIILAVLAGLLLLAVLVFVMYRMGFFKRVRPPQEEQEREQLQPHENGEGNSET
T2 sequence (P05106 27-788): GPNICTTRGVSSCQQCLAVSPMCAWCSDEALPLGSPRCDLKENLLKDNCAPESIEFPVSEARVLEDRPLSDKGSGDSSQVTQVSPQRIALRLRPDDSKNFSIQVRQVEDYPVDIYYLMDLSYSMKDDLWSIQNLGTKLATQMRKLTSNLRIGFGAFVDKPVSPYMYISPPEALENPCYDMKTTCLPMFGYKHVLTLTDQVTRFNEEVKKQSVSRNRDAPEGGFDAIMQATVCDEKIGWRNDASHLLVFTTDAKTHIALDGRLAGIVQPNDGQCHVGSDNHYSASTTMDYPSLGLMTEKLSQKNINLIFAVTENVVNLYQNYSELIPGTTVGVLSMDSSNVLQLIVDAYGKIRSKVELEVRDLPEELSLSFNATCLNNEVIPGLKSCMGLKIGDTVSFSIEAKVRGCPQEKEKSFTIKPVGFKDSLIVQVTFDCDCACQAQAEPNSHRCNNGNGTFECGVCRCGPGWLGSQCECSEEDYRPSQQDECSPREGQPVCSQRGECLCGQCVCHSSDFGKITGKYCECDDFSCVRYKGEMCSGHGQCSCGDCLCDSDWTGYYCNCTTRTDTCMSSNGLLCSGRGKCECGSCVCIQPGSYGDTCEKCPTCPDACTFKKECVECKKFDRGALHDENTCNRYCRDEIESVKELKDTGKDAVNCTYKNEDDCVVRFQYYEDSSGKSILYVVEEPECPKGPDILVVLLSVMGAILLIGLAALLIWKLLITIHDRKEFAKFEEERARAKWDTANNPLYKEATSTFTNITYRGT
T1 sequence (P06756 31-889 limits assumed): as the sequence (P06756 31-889 limits assumed) above
T1 sequence (P06756 891-1048 partner limits assumed): as the sequence (P06756 891-1048 partner limits assumed) above
T1 sequence (P18084 24-799): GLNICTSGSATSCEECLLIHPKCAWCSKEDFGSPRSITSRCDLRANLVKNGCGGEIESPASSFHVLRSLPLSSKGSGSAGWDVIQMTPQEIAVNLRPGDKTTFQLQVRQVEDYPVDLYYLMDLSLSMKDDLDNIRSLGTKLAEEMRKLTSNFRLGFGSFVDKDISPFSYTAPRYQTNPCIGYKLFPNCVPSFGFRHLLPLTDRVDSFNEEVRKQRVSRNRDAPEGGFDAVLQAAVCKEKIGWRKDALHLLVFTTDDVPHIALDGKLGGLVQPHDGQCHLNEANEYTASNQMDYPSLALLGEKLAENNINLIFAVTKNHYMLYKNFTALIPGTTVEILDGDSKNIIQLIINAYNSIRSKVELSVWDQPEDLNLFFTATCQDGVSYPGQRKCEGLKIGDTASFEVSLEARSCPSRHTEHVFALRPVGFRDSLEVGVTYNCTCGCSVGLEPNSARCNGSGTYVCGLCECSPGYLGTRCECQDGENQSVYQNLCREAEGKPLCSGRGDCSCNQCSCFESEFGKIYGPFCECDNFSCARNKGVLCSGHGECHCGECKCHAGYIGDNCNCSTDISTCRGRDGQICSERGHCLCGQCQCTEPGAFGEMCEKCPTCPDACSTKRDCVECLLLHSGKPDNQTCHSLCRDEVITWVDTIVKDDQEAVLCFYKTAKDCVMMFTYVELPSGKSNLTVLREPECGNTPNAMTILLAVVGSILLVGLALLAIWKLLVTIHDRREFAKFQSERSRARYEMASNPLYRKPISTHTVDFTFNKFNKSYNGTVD

Row | IC50 [1, 3] [nM] | IC50 [2, 4] [nM] | Structure (SMILES) | IC50 [1] [nM] | IC50 [2] [nM]
1 | 1 to 10 | < 1 | Cc1cc(OCCCC(=O)NCCNC(=O)[C@H](CS(=O)(=O)O)NC(=O)CN2CCN(CC(=O)O)CCN(CC(=O)O)CCN(CC(=O)O)CC2)cc(C)c1S(=O)(=O)N[C@H](CNC(=O)CCCCc1ccc2c(n1)NCCC2)C(=O)O [Compound K8, 2,2′,2′-(10-(2-(((R)-1-((2-(4-(4-(N—((R)-1-carboxy-2-(5-(5,6,7,8-tetrahydro-1,8-naphthyridin-2-yl)pentanamido)ethyl)sulfamoyl)-3,5-dimethylphenoxy)butanamido)ethyl)amino)-1-oxo-3-sulfopropan-2-yl)amino)-2-oxoethyl)-1,4,7,10-tetraazacyclododecane-1,4,7-triyl)triacetic acid] |  | 
2 | < 1 | < 1 | Cc1cc(OCCCC(=O)NCCNC(=O)[C@H](CS(=O)(=O)O)NC(=O)CC[C@H](C(=O)O)N2CCN(CC(=O)O)CCN(CC(=O)O)CC2)cc(C)c1S(=O)(=O)N[C@@H](CNC(=O)CCCCc1ccc2c(n1)NCCC2)C(=O)O [Aa7, 2,2′-(7-((R)-1-carboxy-4-(((R)-1-((2-(4-(4-(N—((S)-1-carboxy-2-(5-(5,6,7,8-tetrahydro-1,8-naphthyridin-2-yl)pentanamido)ethyl)sulfamoyl)-3,5-dimethylphenoxy)butanamido)ethyl)amino)-1-oxo-3-sulfopropan-2-yl)amino)-4-oxobutyl)-1,4,7-triazonane-1,4-diyl)diacetic acid] |  | 
3 | 1 to 10 | < 1 | Cc1cc(OCCCC(=O)NCCNC(=O)[C@H](CS(=O)(=O)O)NC(=O)CN2CCN(CC(=O)O)CCN(CC(=O)O)CCN(CC(=O)O)CC2)cc(C)c1S(=O)(=O)N[C@@H](CNC(=O)CCCCCc1ccc2c(n1)NCCC2)C(=O)O [Compound W10, 2,2′,2″-(10-(2-(((R)-1-((2-(4-(4-(N—((S)-1-carboxy-2-(6-(5,6,7,8-tetrahydro-1,8-naphthyridin-2-yl)hexanamido)ethyl)sulfamoyl)-3,5-dimethylphenoxy)butanamido)ethyl)amino)-1-oxo-3-sulfopropan-2-yl)amino)-2-oxoethyl)-1,4,7,10-tetraazacyclododecane-1,4,7-triyl)triacetic acid] |  | 
4 | < 1 | < 1 | Cc1cc(OCCCC(=O)NCCNC(=O)[C@H](CS(=O)(=O)O)NC(=O)CC[C@H](NC(=O)CN2CCN(CC(=O)O)CCN(CC(=O)O)CCN(CC(=O)O)CC2)C(=O)N[C@@H](CS(=O)(=O)O)C(=O)NCCNC(=O)CCCOc2cc(C)c(S(=O)(=O)N[C@@H](CNC(=O)c3ccc(CCc4cccc(N)n4)cc3)C(=O)O)c(C)c2)cc(C)c1S(=O)(=O)N[C@@H](CNC(=O)c1ccc(CCc2cccc(N)n2)cc1)C(=O)O [Compound L10] |  | 
5 |  |  | Cc1cc(OCCCC(=O)NCCNC(=O)C(CS(=O)(=O)O)NC(=O)CN2CCN3CCN4CCN(CC2)CC(=O)[O][Y]([O]C(=O)C3)[O]C(=O)C4)cc(C)c1S(=O)(=O)NC(CNC(=O)CCCCc1ccc2c(n1)NCCC2)C(=O)O (stereo not drawn) [DD] | < 1 | < 1
6 | < 1 | < 1 | Cc1cc(OCCCC(=O)NCCNC(=O)COCCOCCNC(=O)COCCOCCNC(=O)CN2CCN(CC(=O)O)CCN(CC(=O)O)CCN(CC(=O)O)CC2)cc(C)c1S(=O)(=O)N[C@@H](CNC(=O)c1ccc(CCc2ccc3c(n2)NCCC3)cc1)C(=O)O [Compound F3, (S)-2,2′,2″-(10-(28-(4-(N-(1-carboxy-2-(4-(2-(5,6,7,8-tetrahydro-1,8-naphthyridin-2-yl)ethyl)benzamido)ethyl)sulfamoyl)-3,5-dimethylphenoxy)-2,11,20,25-tetraoxo-6,9,15,18-tetraoxa-3,12,21,24-tetraazaoctacosyl)-1,4,7,10-tetraazacyclododecane-1,4,7-triyl)triacetic acid] |  | 
7 | < 1 | < 1 | Cc1cc(OCCCC(=O)NCCNC(=O)[C@H](CS(=O)(=O)O)NC(=O)CCC(C(=O)O)N2CCCN3CCN(CCCN(CC(=O)O)CC3)CC2)cc(C)c1S(=O)(=O)N[C@@H](CNC(=O)CCCCc1ccc2c(n1)NCCC2)C(=O)O (single isomer, unassigned) [Ab9-a] |  | 
8 | < 1 | < 1 | Cc1cc(OCCCC(=O)NCCNC(=O)[C@H](CS(=O)(=O)O)NC(=O)CN2CCN(CC(=O)O)CCN(CC(=O)O)CCN(CC(=O)O)CC2)cc(C)c1S(=O)(=O)N[C@@H](CNC(=O)c1ccc(CCc2ccc3c(n2)NCCC3)cc1)C(=O)O [Compound B2, 2,2′,2″-(10-(2-(((R)-1-((2-(4-(4-(N—((S)-1-carboxy-2-(4-(2-(5,6,7,8-tetrahydro-1,8-naphthyridin-2-yl)ethyl)benzamido)ethyl)sulfamoyl)-3,5-dimethylphenoxy)butanamido)ethyl)amino)-1-oxo-3-sulfopropan-2-yl)amino)-2-oxoethyl)-1,4,7,10-tetraazacyclododecane-1,4,7-triyl)triacetic acid] |  | 
9 |  |  | Cc1cc(OCCCC(=O)NCCNC(=O)C(CS(=O)(=O)O)NC(=O)CN2CCN3CCN4CCN(CC2)CC(=O)[O][In]([O]C(=O)C3)[O]C(=O)C4)cc(C)c1S(=O)(=O)NC(CNC(=O)CCCCc1ccc2c(n1)NCCC2)C(=O)O (stereo not drawn) [AA] | < 1 | < 1

Row | Structure (SMILES) | IC50 [1, 3] [nM] | IC50 [2, 4] [nM] | IC50 [1] [nM] | IC50 [2] [nM]
10 | Cc1cc(OCCCC(=O)NCCNC(=O)[C@H](CS(=O)(=O)O)NC(=O)[C@H](CS(=O)(=O)O)NC(=O)CN2CCN(CC(=O)O)CCN(CC(=O)O)CCN(CC(=O)O)CC2)cc(C)c1S(=O)(=O)N[C@@H](CNC(=O)CCCCc1ccc2c(n1)NCCC2)C(=O)O [Compound O10, 2,2′,2′-(10-((4R,7R)-16-(4-(N—((S)-1-carboxy-2-(5-(5,6,7,8-tetrahydro-1,8-naphthyridin-2-yl)pentanamido)ethyl)sulfamoyl)-3,5-dimethylphenoxy)-2,5,8,13-tetraoxo-4,7-bis(sulfomethyl)-3,6,9,12-tetraazahexadecyl)-1,4,7,10-tetraazacyclododecane-1,4,7-triyl)triacetic acid] | < 1 | < 1 |  | 
11 | Cc1cc(OCCCC(=O)NCCNC(=O)[C@H](CS(=O)(=O)O)NC(=O)CCC(NC(=O)CN2CCN(CC(=O)O)CCN(CC(=O)O)CCN(CC(=O)O)CC2)C(=O)N[C@@H](CS(=O)(=O)O)C(=O)NCCNC(=O)CCCOc2cc(C)c(S(=O)(=O)N[C@@H](CNC(=O)c3ccc(CCc4ccc5c(n4)NCCC5)cc3)C(=O)O)c(C)c2)cc(C)c1S(=O)(=O)N[C@@H](CNC(=O)c1ccc(CCc2ccc3c(n2)NCCC3)cc1)C(=O)O (stereo partly drawn) [Compound H9] | < 1 | < 1 |  | 
12 | O=C(O)CN1CCN(CC(=O)O)CCN(CC(=O)N[C@@H](CS(=O)(=O)O)C(=O)N[C@@H](CS(=O)(=O)O)C(=O)NCCNC(=O)CCCOc2ccc(S(=O)(=O)N[C@@H](CNC(=O)c3ccc(CCc4ccc5c(n4)NCCC5)cc3)C(=O)O)cc2)CCN(CC(=O)O)CC1 [Compound Y13, 2,2′,2″-(10-((4R,7R)-16-(4-(N—((S)-1-carboxy-2-(4-(2-(5,6,7,8-tetrahydro-1,8-naphthyridin-2-yl)ethyl)benzamido)ethyl)sulfamoyl)phenoxy)-2,5,8,13-tetraoxo-4,7-bis(sulfomethyl)-3,6,9,12-tetraazahexadecyl)-1,4,7,10-tetraazacyclododecane-1,4,7-triyl)triacetic acid hexasodium salt] | < 1 | < 1 |  | 
